In general, IC50 refers to the concentration needed to halve the response being measured.

Molecules are shown by their SMILES.

This passage reports IC50 results from patent US20250376445A1, “COMPOUNDS AND METHODS FOR YAP/TEAD MODULATION AND INDICATIONS THEREFOR” (OPNA BIO SA, priority 2023, published 2025).

One assay has as its system TEAD-dependent transcription. Kind of assay: TEAD-dependent transcription cell-based reporter assay (MSTO-211H+12XGTIIC luciferase). Also noted: species or system human. As to conditions: Homo sapiens; MSTO-211H+12XGTIIC reporter cells, 24 hours compound incubation, luminescence normalized to viability; read-out: MSTO-211H GMean IC50 (uM) Cell Assay Reporter Cell Variant: TEAD. The source says: The human mesothelioma cell line MSTO-211H was stably transfected with a pGL4.21 plasmid containing a synthetic promoter with 12 copies of the GTIIC TEAD response element that drives the expression of a luciferase reporter gene^1 using Lipofectamine transfection reagent (Thermo Fisher). Transfected cells were selected using puromycin and single cell clones expressing this construct (referred to as MSTO-211H+12XGTIIC) were generated by limiting dilution. MSTO-211H cells was characterized by genetic alterations in key components of the Hippo pathway^2, resulting in up-regulation of YAP/TEAD-mediated transcription. […] To evaluate TEAD inhibitors, the MSTO-211H+12XGTIIC cell line was seeded in a 96-well plate in 50 μL of culture media at 1×10^4 cells per well and incubated at 37° C. overnight. Serial dilutions of compounds (in total volume of 50 μL of culture media) were added to the cells and incubated at 37° C. for 24 hours. Each plate included cells treated with DMSO as high controls and cells treated with 20 μM of the reference compound K-975 (a known TEAD inhibitor)^3 as low controls. Cell viability was assayed by the addition of 25 μL of CellTiter-Fluor reagent (Promega) followed by a 30-minute incubation at 37° C. and quantification of the fluorescence signal (Ex400/Em505). Subsequently, luciferase expression was assayed by the addition of 25 μL of ONE-Glo reagent (Promega) followed by a 10-minute incubation at room temperature and quantification of the luminescence signal. The luminescence signal was normalized to the fluorescence signal to correct for any loss in cell viability over the 24-hour compound incubation period. The percentage of inhibition of normalized luminescence signal, indicative of compound-mediated inhibition of TEAD-dependent transcription, at individual compound concentrations relative to high and low controls was calculated. The data were analyzed by using nonlinear regression to generate IC50 values for individual compounds.
A general note: A reporter such as luciferase makes a cellular process visible.
Regarding `C[C@@H](N)C(=O)N1CCc2cc(-c3ccc(C(F)(F)F)cc3)ccc2C1` [O-0186, (R)-2-amino-1-(6-(4-(trifluoromethyl)phenyl)-3,4-dihydroisoquinolin-2(1H)-yl)propan-1-one], the IC50 was in the range of 0.001 to 10 µM. The same measure, in the same setting: the figure for `C=CC(=O)N1CCc2ccc(-c3ccc(C(F)(F)F)cc3)cc2C1` [O-0113, 1-(7-(4-(trifluoromethyl)phenyl)-3,4-dihydroisoquinolin-2(1H)-yl)prop-2-en-1-one] is 0.001 to 10 µM; for `C[C@@H](NC(=O)OC(C)(C)C)C(=O)N1CCc2c(cccc2-c2ccc(C(F)(F)F)cc2)C1` [O-0196, tert-butyl (R)-(1-oxo-1-(5-(4-(trifluoromethyl)phenyl)-3,4-dihydroisoquinolin-2(1H)-yl)propan-2-yl)carbamate] it is above 100 µM; for `O=C(c1ccc(C(F)(F)F)cc1)c1cccc2c1CCN(C(=O)c1ncc(C(F)(F)F)[nH]1)C2` [O-0072, (5-(trifluoromethyl)-1H-imidazol-2-yl)(5-(4-(trifluoromethyl)benzoyl)-3,4-dihydroisoquinolin-2(1H)-yl)methanone] it is 0.001 to 10 µM. Take `CS(=O)(=O)CCC(=O)N1CCc2c(cccc2C(=O)c2ccc(C(F)(F)F)cc2)C1` [O-0081, 3-(methylsulfonyl)-1-(5-(4-(trifluoromethyl)benzoyl)-3,4-dihydroisoquinolin-2(1H)-yl)propan-1-one]: the half-inhibitory concentration (IC50) was in the range of 0.001 to 10 µM.

On to `O=C(c1ccc(C(F)(F)F)cc1)c1cccc2c1CCN(C(=O)Cc1cscn1)C2` [O-0076, 2-(thiazol-4-yl)-1-(5-(4-(trifluoromethyl)benzoyl)-3,4-dihydroisoquinolin-2(1H)-yl)ethan-1-one], for which the IC50 fell in the range of 0.001 to 10 µM. Still for that read-out and setting: the figure for `O=C(c1ccc(C(F)(F)F)cc1)c1cccc2c1CCN(C(=O)c1cccc3[nH]c(C(F)(F)F)nc13)C2` [O-0046, (2-(trifluoromethyl)-1H-benzo[d]imidazol-4-yl)(5-(4-(trifluoromethyl)benzoyl)-3,4-dihydroisoquinolin-2(1H)-yl)methanone] is 0.001 to 10 µM. Still for that read-out and setting: the value for `O=C(c1ccc(C(F)(F)F)cc1)c1cccc2c1CCN(C(=O)Cc1c[nH]cn1)C2` [O-0047, 2-(1H-imidazol-4-yl)-1-(5-(4-(trifluoromethyl)benzoyl)-3,4-dihydroisoquinolin-2(1H)-yl)ethan-1-one] was 0.001 to 10 µM. As for `O=C(CCS(=O)(=O)C(F)(F)F)N1CCc2c(cccc2C(F)(F)c2ccc(C(F)(F)F)nc2)C1` [O-0009, 1-(5-(difluoro(6-(trifluoromethyl)pyridin-3-yl)methyl)-3,4-dihydroisoquinolin-2(1H)-yl)-3-((trifluoromethyl)sulfonyl)propan-1-one], the half-maximal inhibitory concentration (IC50) lay within 0.001 to 10 µM. The same measure, in the same setting: the figure for `C[C@H](N)C(=O)N1CCc2c(cccc2-c2ccc(C(F)(F)F)cc2)C1` [O-0194, (S)-2-amino-1-(5-(4-(trifluoromethyl)phenyl)-3,4-dihydroisoquinolin-2(1H)-yl)propan-1-one] is 0.001 to 10 µM; for `O=C(CCS(=O)(=O)C(F)(F)F)N1CCc2cc(-c3ccc(C(F)(F)F)c(F)c3)ccc2C1` [O-0130, 1-(6-(3-fluoro-4-(trifluoromethyl)phenyl)-3,4-dihydroisoquinolin-2(1H)-yl)-3-((trifluoromethyl)sulfonyl)propan-1-one] it is 0.001 to 10 µM. As to `O=C(CCS(=O)(=O)C(F)(F)F)N1CCc2ccc(C(F)c3ccc(C(F)(F)F)nc3)cc2C1` (stereo not drawn) [O-0063, 1-(7-(fluoro(6-(trifluoromethyl)pyridin-3-yl)methyl)-3,4-dihydroisoquinolin-2(1H)-yl)-3-((trifluoromethyl)sulfonyl)propan-1-one], the half-inhibitory concentration (IC50) lay within 0.001 to 10 µM. On to `C=CC(=O)N1CCc2cc(-c3ccc(C(F)(F)F)cc3)ccc2C1` [O-0110, 1-(6-(4-(trifluoromethyl)phenyl)-3,4-dihydroisoquinolin-2(1H)-yl)prop-2-en-1-one], for which the IC50 fell in the range of 0.001 to 10 µM. Same read-out and setting: the figure for `CS(=O)(=O)c1nccc(C(=O)N2CCc3c(cccc3C(=O)c3ccc(C(F)(F)F)cc3)C2)n1` [O-0033, (2-(methylsulfonyl)pyrimidin-4-yl)(5-(4-(trifluoromethyl)benzoyl)-3,4-dihydroisoquinolin-2(1H)-yl)methanone] is 0.001 to 10 µM.

Consider `C[C@@H](NS(C)(=O)=O)C(=O)N1CCc2cc(-c3ccc(C(F)(F)F)cc3)ccc2C1` [O-0161, (R)-N-(1-oxo-1-(6-(4-(trifluoromethyl)phenyl)-3,4-dihydroisoquinolin-2(1H)-yl)propan-2-yl)methanesulfonamide], for which the IC50 fell in the range of 0.001 to 10 µM. For `C=CS(=O)(=O)N1CCc2ccc(-c3ccc(C(F)(F)F)cc3)cc2C1` [O-0114, 7-(4-(trifluoromethyl)phenyl)-2-(vinylsulfonyl)-1,2,3,4-tetrahydroisoquinoline], the IC50 is 0.001 to 10 µM. The same measure, in the same setting: the figure for `O=C(c1c[nH]c(C(F)(F)F)n1)N1CCc2ccc(-c3ccc(C(F)(F)F)cc3)cc2C1` [O-0188, (2-(trifluoromethyl)-1H-imidazol-4-yl)(7-(4-(trifluoromethyl)phenyl)-3,4-dihydroisoquinolin-2(1H)-yl)methanone] is 10 to 100 µM; for `CS(=O)(=O)c1nc(C(=O)N2CCc3ccc(C(=O)c4ccc(C(F)(F)F)cc4)cc3C2)c[nH]1` [O-0064, (2-(methylsulfonyl)-1H-imidazol-4-yl)(7-(4-(trifluoromethyl)benzoyl)-3,4-dihydroisoquinolin-2(1H)-yl)methanone] it is 0.001 to 10 µM; for `O=C(c1c[nH]c(C(F)(F)F)n1)N1CCc2c(cccc2C(F)c2ccc(C(F)(F)F)cc2)C1` (stereo not drawn) [O-0055, (5-(fluoro(4-(trifluoromethyl)phenyl)methyl)-3,4-dihydroisoquinolin-2(1H)-yl)(2-(trifluoromethyl)-1H-imidazol-4-yl)methanone] it is 0.001 to 10 µM.

On to `C[C@@H](NC(=O)c1cccc(N)n1)C(=O)N1CCc2c(cccc2-c2ccc(C(F)(F)F)cc2)C1` [O-0132, (R)-6-amino-N-(1-oxo-1-(5-(4-(trifluoromethyl)phenyl)-3,4-dihydroisoquinolin-2(1H)-yl)propan-2-yl)picolinamide], for which the IC50 lay in the range of 0.001 to 10 µM. On the same count and under the same terms, the figure for `O=C(Cc1cnc[nH]1)N1CCc2ccc(C(F)(F)c3ccc(C(F)(F)F)nc3)cc2C1` [O-0060, 1-(7-(difluoro(6-(trifluoromethyl)pyridin-3-yl)methyl)-3,4-dihydroisoquinolin-2(1H)-yl)-2-(1H-imidazol-5-yl)ethan-1-one] is 0.001 to 10 µM; for `CC(=O)N[C@H](C)C(=O)N1CCc2ccc(-c3ccc(C(F)(F)F)cc3)cc2C1` [O-0182, (R)-N-(1-oxo-1-(7-(4-(trifluoromethyl)phenyl)-3,4-dihydroisoquinolin-2(1H)-yl)propan-2-yl)acetamide] it is 0.001 to 10 µM; for `CS(=O)(=O)c1nc(C(=O)N2CCc3ccc(-c4ccc(C(F)(F)F)cc4)cc3C2)c[nH]1` [O-0189, (2-(methylsulfonyl)-1H-imidazol-4-yl)(7-(4-(trifluoromethyl)phenyl)-3,4-dihydroisoquinolin-2(1H)-yl)methanone] it is 0.001 to 10 µM. On to `O=C(CCS(=O)(=O)C(F)(F)F)N1CCc2c(cccc2C(O)c2ccc(C(F)(F)F)cc2)C1` (stereo not drawn) [O-0004, 1-(5-(hydroxy(4-(trifluoromethyl)phenyl)methyl)-3,4-dihydroisoquinolin-2(1H)-yl)-3-((trifluoromethyl)sulfonyl)propan-1-one], for which the IC50 lay within 0.001 to 10 µM.

For the molecule `O=C(CCS(=O)(=O)C(F)(F)F)N1CCc2ccc(C(F)(F)c3ccc(C(F)(F)F)nc3)cc2C1` [O-0062, 1-(7-(difluoro(6-(trifluoromethyl)pyridin-3-yl)methyl)-3,4-dihydroisoquinolin-2(1H)-yl)-3-((trifluoromethyl)sulfonyl)propan-1-one], the IC50 was 0.001 to 10 µM. Still for that read-out and setting: the figure for `O=C(CCS(=O)(=O)C(F)(F)F)N1CCc2cc(-c3ccc(C(F)(F)F)cc3)ccc2C1` [O-0128, 1-(6-(4-(trifluoromethyl)phenyl)-3,4-dihydroisoquinolin-2(1H)-yl)-3-((trifluoromethyl)sulfonyl)propan-1-one] is 0.001 to 10 µM.

Staying with this assay, now noted: MSTO-211H+12XGTIIC reporter cells, 24 hours compound incubation, luminescence normalized to viability; read-out: MSTO-211H GMean IC50 (uM) Cell Assay Reporter Cell Variant: TEAD.
In the case of `O=C(CCS(=O)(=O)C(F)(F)F)N1CCc2c(cccc2C(F)c2ccc(C(F)(F)F)nc2)C1` (stereo not drawn) [O-0066, 1-(5-{fluoro[6-(trifluoromethyl)-3-pyridyl]methyl}-1,2,3,4-tetrahydro-2-isoquinolyl)-3-(trifluoromesyl)-1-propanone], the IC50 is 0.001 to 10 µM.
